According to patent US5292737A, “N,N'-bis(sulfonamido)-2-amino-4-iminonaphthalen-1-ones and N,N'-bis(amido)-2-amino-4-iminonaphthalen-1-ones” (Sphinx Pharmaceuticals Corporation, priority 1992, dated 1994):
pIC50: −log10 of the molar value. Like-named read-outs stand apart in the source and are kept apart here.

Assays:
PKC isoenzyme γ = molecular target: T1, PKC isoenzyme γ (Homo sapiens, UniProt P05129); assay: Protein kinase C inhibition assay, PKC isoenzyme γ; assay type: biochemical
T1 construct: made in house; host or cells: baculovirus-insect cell expression system
How it was run: (§1)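 Radiometric filter assay: enzyme from baculovirus-infected insect cells, H1 or Mbp acceptor, PS/DAG vesicles at suboptimal lipid levels, physiologic-like buffer. Test compound 1–150 μM (four levels, DMSO). 10 min reaction, 25% TCA + BSA stop, scintillation count; IC50 = 50% inhibition of control activity.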

PKC isoenzyme δ = molecular target: T2, PKC isoenzyme δ (Homo sapiens, UniProt Q05655); assay: Protein kinase C inhibition assay, PKC isoenzyme δ; assay type: biochemical
T2 construct: made in house; host or cells: baculovirus-insect cell expression system
T2 sequence (Q05655 whole entry): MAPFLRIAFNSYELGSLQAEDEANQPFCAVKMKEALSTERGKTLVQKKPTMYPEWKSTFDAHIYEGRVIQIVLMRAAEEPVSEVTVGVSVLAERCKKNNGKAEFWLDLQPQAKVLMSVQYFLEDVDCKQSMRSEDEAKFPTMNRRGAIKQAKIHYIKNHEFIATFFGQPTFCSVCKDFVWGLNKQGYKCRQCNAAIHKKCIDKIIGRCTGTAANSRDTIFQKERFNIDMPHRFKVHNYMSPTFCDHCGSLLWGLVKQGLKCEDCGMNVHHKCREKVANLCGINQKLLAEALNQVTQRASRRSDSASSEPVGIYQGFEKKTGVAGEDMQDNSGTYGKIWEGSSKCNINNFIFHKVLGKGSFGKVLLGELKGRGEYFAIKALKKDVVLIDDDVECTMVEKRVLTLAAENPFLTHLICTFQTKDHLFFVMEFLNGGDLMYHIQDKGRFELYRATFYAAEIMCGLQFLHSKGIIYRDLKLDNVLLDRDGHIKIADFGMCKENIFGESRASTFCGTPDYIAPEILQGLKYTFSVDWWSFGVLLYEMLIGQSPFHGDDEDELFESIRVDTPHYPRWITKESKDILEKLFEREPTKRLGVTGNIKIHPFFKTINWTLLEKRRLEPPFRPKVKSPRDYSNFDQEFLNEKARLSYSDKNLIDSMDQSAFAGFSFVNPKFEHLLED
How it was run: as §1

PKC isoenzyme ζ = molecular target: T3, PKC isoenzyme ζ (Homo sapiens, UniProt Q05513); assay: Protein kinase C inhibition assay, PKC isoenzyme ζ; assay type: biochemical
T3 construct: made in house; host or cells: baculovirus-insect cell expression system
T3 sequence (Q05513 1-592): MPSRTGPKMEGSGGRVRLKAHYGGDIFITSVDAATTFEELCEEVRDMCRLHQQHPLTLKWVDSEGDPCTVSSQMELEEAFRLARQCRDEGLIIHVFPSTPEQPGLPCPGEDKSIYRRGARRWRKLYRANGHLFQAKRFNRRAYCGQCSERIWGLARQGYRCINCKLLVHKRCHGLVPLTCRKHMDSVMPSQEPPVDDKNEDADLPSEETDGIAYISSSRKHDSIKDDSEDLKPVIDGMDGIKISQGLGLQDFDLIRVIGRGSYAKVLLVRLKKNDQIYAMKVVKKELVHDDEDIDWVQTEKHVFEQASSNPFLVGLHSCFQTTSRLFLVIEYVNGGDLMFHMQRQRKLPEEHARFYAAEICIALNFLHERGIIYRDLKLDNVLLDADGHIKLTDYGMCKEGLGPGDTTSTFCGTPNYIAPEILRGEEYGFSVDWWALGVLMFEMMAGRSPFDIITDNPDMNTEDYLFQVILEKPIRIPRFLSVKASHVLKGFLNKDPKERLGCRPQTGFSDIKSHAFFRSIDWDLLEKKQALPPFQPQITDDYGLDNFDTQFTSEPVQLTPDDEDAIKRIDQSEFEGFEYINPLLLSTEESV
How it was run: as §1

[1] = molecular target: cAMP dependent protein kinase (PKA); assay: cAMP Dependent Protein Kinase (PKA) Assay; assay type: biochemical; conditions: for pIC50: catalytic subunit of PKA; for effect on PKA activity: result in words
How it was run: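 PKA catalytic subunit preincubated with test compound added from DMSO at final 30 and 150 μM; reaction started with ^32P-ATP, run 10 min, stopped with 25% TCA plus BSA. Phosphorylated protein collected by filtration and counted by beta scintillation.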

[2] = test system: MCF-7 human breast tumor cell line; assay: Human Tumor Cell Growth Inhibition (3H-thymidine incorporation); assay type: cell-based
Experimental: MCF-7 a human breast tumor cell line was obtained from the National Cancer Institute, Frederick, Md. Tumor cells were trypsinized with 0.05% trypsin obtained from GIBCO (Grand Island Biological Co. Laboratories, Grand Island, N.Y.), counted with a hemacytometer and seeded at a concentration of 7,500 cells/well in a 96 well microtiter plate and allowed to attach to the surface overnight. To determine a concentration response, test agents were serially diluted an […] added at 2× final concentration to quadruplicate cultures to bring the total volume of each well to […]. The microtiter plate was then incubated at 37° C., 5% CO2 for 24 hrs with ^3 H-thymidine added at a concentration of 0.5 mCi/well in […] of 0.05% trypsin (GIBCO) was added to each well. Cells were checked microscopically to determine detachment from surfaces, and plates were harvested with a cell harvester (PHD, Cambridge Technology, Inc.). Filter paper corresponding to wells were placed in scintillation vials and counted to determine the amount ^3 H-thymidine incorporated by the cells. Counts per minute (CPM) of quadruplicate cultures were averaged and a percent of control calculated for each test agent concentration by the following formula: [formula]
The IC50 or concentration necessary to inhibit the proliferation of cells by 50% compared to control, of each test agent was determined by plotting % control vs log concentration for each dilution and then linear forecasting the 50% control value onto the X axis on a Quattro Pro computer program. Only regression values with a correlation coefficient greater then 0.9 were considered acceptable.

[3] = Homo sapiens, MCF7, MCF-7, 24 hrs

Row | SMILES | pIC50 [1] | effect on PKA activity [1] | pIC50 [2, 3] | pIC50 (PKC isoenzyme γ; read-out: IC50 PKC γ) | pIC50 (PKC isoenzyme δ; read-out: IC50 PKC δ) | pIC50 (PKC isoenzyme ζ; read-out: IC50 PKC .zeta.) | pIC50 ([2]; MCF-7, 24 hrs) | pIC50 (PKC isoenzyme γ; IC50 PKC γ) | pIC50 (PKC isoenzyme δ; IC50 PKC δ) | pIC50 (PKC isoenzyme ζ; IC50 PKC .zeta.)
1 | O=C1C(Nc2ccc(S(=O)(=O)NCCNc3ccc([N+](=O)[O-])cn3)cc2)=CC(=Nc2ccc(S(=O)(=O)NCCNc3ccc([N+](=O)[O-])cn3)cc2)c2ccccc21 [Compound 3ac] | < 3.82 | did not effect on PKA activity | 6.80 | – | – | – | – | 4.66 | 3.83 | < 3.82
2 | Cc1cc(C)nc(NS(=O)(=O)c2cccc(N=C3C=C(Nc4cccc(S(=O)(=O)Nc5cc(C)cc(C)n5)c4)C(=O)c4ccccc43)c2)c1 [Compound 3ae] | < 3.82 | did not effect on PKA activity | 5.32 | 4.80 | 4.07 | < 3.82 | – | – | – | –
3 | COc1cc(NS(=O)(=O)c2ccc(N=C3C=C(Nc4ccc(S(=O)(=O)Nc5cc(OC)cc(OC)c5)cc4)C(=O)c4ccccc43)cc2)cc(OC)c1 [Compound 3af] | 4.21 | – | 6.08 | 4.40 | < 3.82 | < 3.82 | – | – | – | –
4 | Cc1cc(C)nc(NS(=O)(=O)c2cc(N=C3C=C(Nc4ccc(C)c(S(=O)(=O)Nc5cc(C)cc(C)n5)c4)C(=O)c4ccccc43)ccc2C)c1 [Compound 3ag] | < 3.82 | did not effect on PKA activity | 5.62 | 4.70 | 4.52 | 4.55 | – | – | – | –
5 | Cc1cc(C)nc(NC(=O)c2ccc(N=C3C=C(Nc4ccc(C(=O)Nc5cc(C)cc(C)n5)cc4)C(=O)c4ccccc43)cc2)c1 [Compound 3ah] | – | – | 5.85 | 4.15 | < 3.82 | < 3.82 | – | – | – | –
6 | Cc1cc(C)nc(NC(=O)c2ccc(N=C3C=C(Nc4ccc(C(=O)Nc5nc(C)cc(C)n5)cc4)C(=O)c4ccccc43)cc2)n1 [Compound 3ai] | < 3.82 | did not effect on PKA activity | 7.52 | 5.05 | < 3.82 | < 3.82 | – | – | – | –
7 | O=C1C(Nc2ccc(S(=O)(=O)Nc3ccccn3)cc2)=CC(=Nc2ccc(S(=O)(=O)Nc3ccccn3)cc2)c2ccccc21 [Compound 3i] | < 3.82 | did not effect on PKA activity | 4.86 | 4.82 | 4.43 | < 3.82 | – | – | – | –
8 | COc1ccc(NS(=O)(=O)c2ccc(N=C3C=C(Nc4ccc(S(=O)(=O)Nc5ccc(OC)nn5)cc4)C(=O)c4ccccc43)cc2)nn1 [Compound 3j] | < 3.82 | did not effect on PKA activity | 4.79 | 4.82 | 4.77 | < 3.82 | – | – | – | –
9 | O=C1C(Nc2ccc(S(=O)(=O)Nc3cnc4ccccc4n3)cc2)=CC(=Nc2ccc(S(=O)(=O)Nc3cnc4ccccc4n3)cc2)c2ccccc21 [Compound 3m] | 4.09 | – | 4.75 | 4.85 | 3.91 | 4.55 | – | – | – | –
10 | O=C1C(Nc2ccc(S(=O)(=O)NCc3ccccn3)cc2)=CC(=Nc2ccc(S(=O)(=O)NCc3ccccn3)cc2)c2ccccc21 [Compound 3n] | < 3.82 | did not effect on PKA activity | 5.99 | 4.62 | < 3.82 | < 3.82 | – | – | – | –

Second part, led by results:

Row | pIC50 [1] | effect on PKA activity [1] | pIC50 [2, 3] | pIC50 (PKC isoenzyme γ; read-out: IC50 PKC γ) | pIC50 (PKC isoenzyme δ; read-out: IC50 PKC δ) | pIC50 (PKC isoenzyme ζ; read-out: IC50 PKC .zeta.) | pIC50 ([2]; MCF-7, 24 hrs) | SMILES | pIC50 (PKC isoenzyme γ; IC50 PKC γ) | pIC50 (PKC isoenzyme δ; IC50 PKC δ) | pIC50 (PKC isoenzyme ζ; IC50 PKC .zeta.)
11 | – | did not effect on PKA activity | – | 4.80 | 4.31 | < 3.82 | 5.74 | Cc1cc(C)nc(NS(=O)(=O)c2cc(N=C3C=C(Nc4ccc(C)c(S(=O)(=O)Nc5cc(C)cc(C)n5)c4)C(=O)c4ccccc43)ccc2C)c1 [Compound 6ag] | – | – | –
12 | 4.32 | – | – | 5.15 | 5.00 | 3.88 | 4.81 | Cc1cc(C)nc(NS(=O)(=O)c2ccc(N=C3C=C(Nc4ccc(S(=O)(=O)Nc5nc(C)cc(C)n5)cc4)C(=O)c4ccccc43)cc2)n1 [Compound 6c] | – | – | –
13 | 4.34 | – | – | 4.74 | 4.37 | 4.46 | 4.75 | Cc1ccnc(NS(=O)(=O)c2ccc(N=C3C=C(Nc4ccc(S(=O)(=O)Nc5nccc(C)n5)cc4)C(=O)c4ccccc43)cc2)n1 [Compound 6f] | – | – | –
14 | 4.33 | – | – | 4.70 | < 3.82 | 4.55 | 4.68 | COc1cc(NS(=O)(=O)c2ccc(N=C3C=C(Nc4ccc(S(=O)(=O)Nc5cc(OC)nc(OC)n5)cc4)C(=O)c4ccccc43)cc2)nc(OC)n1 [Compound 6g] | – | – | –
15 | < 3.82 | did not effect on PKA activity | – | 4.39 | < 3.82 | 4.33 | 4.83 | COc1cnc(NS(=O)(=O)c2ccc(N=C3C=C(Nc4ccc(S(=O)(=O)Nc5ncc(OC)cn5)cc4)C(=O)c4ccccc43)cc2)nc1 [Compound 6h] | – | – | –
16 | < 3.82 | did not effect on PKA activity | – | 4.52 | 3.95 | 4.31 | 4.96 | COc1ccc(NS(=O)(=O)c2ccc(N=C3C=C(Nc4ccc(S(=O)(=O)Nc5ccc(OC)nn5)cc4)C(=O)c4ccccc43)cc2)nn1 [Compound 6j] | – | – | –
17 | 3.84 | – | – | 5.00 | 4.43 | 5.05 | 4.72 | O=C1C(Nc2ccc(S(=O)(=O)Nc3cnc4ccccc4n3)cc2)=CC(=Nc2ccc(S(=O)(=O)Nc3cnc4ccccc4n3)cc2)c2ccccc21 [Compound 6m] | – | – | –
